Measurements reported in PMC2693246 (ACS chemical biology, 2009).
≈ marks a conversion by molar mass, not a printed value. Entries after “also recorded” stand apart in the source; their conditions may differ.

Key:
F. tularensis Schu4 = test system: F. tularensis Schu4; parameters: species or system mice; conditions: mouse, in vivo; for %Survival: ip, 200 mg/kg
ftuFabI [1] = molecular target: T1, ftuFabI (Francisella tularensis subsp. tularensis, UniProt Q5NGQ3); test: biochemical; format: biochemical
in vitro = conditions: African green monkey
ecFabI = conditions: cited from earlier work
ftuFabI [2] = molecular target: T1, ftuFabI; format: biochemical
F. tularensis LVS = test: microbe, parasite or virus in culture; format: cell-based, Francisella tularensis; conditions: for MIC90: Francisella tularensis
ftuFabI [3] = molecular target: T1, ftuFabI; format: biochemical; remark: listed apart in the source

T1 sequence (Q5NGQ3 1-260): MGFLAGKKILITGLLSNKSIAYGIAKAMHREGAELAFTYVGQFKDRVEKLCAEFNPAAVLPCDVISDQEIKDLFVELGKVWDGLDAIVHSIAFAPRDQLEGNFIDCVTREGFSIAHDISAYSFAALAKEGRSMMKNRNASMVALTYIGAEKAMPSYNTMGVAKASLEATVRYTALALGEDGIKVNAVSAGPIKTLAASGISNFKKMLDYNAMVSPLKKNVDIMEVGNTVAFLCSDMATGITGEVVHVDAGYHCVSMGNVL

SMILES	Median Survival (F. tularensis Schu4) [days]	efficacy in the 10-day animal model of infection (F. tularensis Schu4)	%Survival (F. tularensis Schu4) [%]	Ki (ftuFabI [1]) [nM]	k2 (ftuFabI [1]) [min⁻¹]	k−2 (ftuFabI [1]) [min⁻¹]	residence time (ftuFabI [1]) [min]	CC50 (in vitro) [ng/mL]	Type of Inhibition (ftuFabI [2])	MIC90 (F. tularensis LVS) [ng/mL]	also measured
Oc1cc(Cl)ccc1Oc1ccccc1 [Compound 4, 5-chloro-2-phenoxyphenol]	6.8	demonstrated efficacy	11	665 ± 70	0.11 ± 0.01	0.033 ± 0.002	30 ± 2	60000 ± 14000 (≈ 272 µM)	Slow-onset	1 ± 1 (≈ 0.00453 µM)	fold higher affinity for ecFabI than triclosan (ecFabI): 7 fold; fold decrease in affinity for ftuFabI compared to triclosan (ftuFabI [2]): 37 fold
CNC(C)C1CCC(N)C(OC2C(N)CC(N)C(OC3OCC(C)(O)C(NC)C3O)C2O)O1 (stereo not shown) [Gentamicin, reference compound]										4000 (≈ 8.38 µM)	
Oc1cc(F)ccc1Oc1ccccc1 [Compound 3, 5-fluoro-2-phenoxyphenol]									not a slow-onset inhibitor; also recorded: Rapid equilibrium	320 ± 20 (≈ 1.57 µM)	fold decrease in binding affinity compared to 4 and 7 (ftuFabI [3]): 150 fold
CCCc1ccc(Oc2ccccc2)c(O)c1 [Compound 9, 5-propyl-2-phenoxyphenol]	7.8	demonstrated efficacy	39	375 ± 6	1.66 ± 0.01	0.017 ± 0.002	59 ± 2	62000 ± 3000 (≈ 272 µM)	slow-onset inhibitors	0.18 ± 0.14 (≈ 0.000788 µM)	fold more potent (MIC90) than doxycycline (F. tularensis LVS): > 4,000 fold; fold more potent (MIC90) than gentamicin (F. tularensis LVS): more than 22,000 fold
C[C@H]1c2cccc(O)c2C(=O)C2=C(O)[C@]3(O)C(=O)C(C(N)=O)=C(O)[C@@H](N(C)C)[C@@H]3[C@@H](O)[C@@H]21 [Doxycycline, reference compound]										750 ± 350 (≈ 1.69 µM)	
Oc1cc(Cl)ccc1Oc1ccc(Cl)cc1Cl [Compound 1, triclosan, reference compound]	7.8	demonstrated efficacy	22	407 ± 48	0.56 ± 0.04	0.025 ± 0.003	40 ± 3	14000 ± 1000 (≈ 48.4 µM)	uncompetitive inhibitor; also recorded: Slow-onset	0.015 (≈ 5.18e-05 µM)	fold tighter binding to E:NAD+ than to E:NADH (ftuFabI [2]): approximately 90,000 fold
Cc1ccc(Oc2ccccc2)c(O)c1 [Compound 7, 5-methyl-2-phenoxyphenol]									slow-onset inhibitors	160 ± 70 (≈ 0.799 µM)	
[H]/N=C(/N)N[C@H]1[C@H](O)[C@@H](O)[C@H](O[C@@H]2O[C@@H](C)[C@](O)(C=O)[C@H]2O[C@@H]2O[C@@H](CO)[C@H](O)[C@@H](O)[C@@H]2NC)[C@@H](N/C(N)=N\[H])[C@@H]1O [Streptomycin, reference compound]										2000 (≈ 3.44 µM)	
